Assay results from US8293772B2, “Triazole substituted aminobenzophenone compounds” (Leo Pharma A/S, priority 2004, dated 2012).

Tests used:
IL-1β = test: Inhibition of IL-1β secretion in LPS stimulated peripheral blood mononuclear cells; type: cell-based; details: LPS stimulated human PBMC, 18 hours, ELISA; read-out: The median inhibition concentration (IC50, nM) of IL-1β
Protocol: (§1) To study the effect of compounds of the present invention in vitro, the inhibition of IL-1β and TNF-α secretion was determined using the following procedure:
(§2) Cytokine production was measured in the media from lipopolysaccharide (LPS) stimulated peripheral blood mononuclear cells. The mononuclear cells were isolated from human peripheral blood by Lymphoprep® (Nycomed, Norway) fractionation and suspended in RPMI 1640 (growth medium) with foetal calf serum (FCS, 2%), at a concentration of 5×10^5 cells/ml. The cells were incubated in 24-well tissue culture plates in 1 ml aliquots. Test compounds were dissolved in dimethylsulfoxide (DMSO, 10 mM) and were diluted with the medium. Compounds were added to the cells for 30 minutes, then LPS ([…] final concentration) was added. The plates were incubated for 18 hours, and the concentration of IL-1β and TNF-α in the medium was determined by enzyme-linked immunosorbent assays. The median inhibitory concentrations (IC50) of the compounds were calculated.

TNF-α [1] = test: Inhibition of TNF-α secretion in LPS stimulated peripheral blood mononuclear cells; type: cell-based; details: LPS stimulated human PBMC, 18 hours, ELISA; read-out: The median inhibition concentration (IC50, nM) of TNF-α
Protocol: as §1, §2

TNF-α [2] = test: In vivo screening model of LPS induced TNF-α response in mice; details: Mus musculus, po, 1 mg/kg p.o., 1 hour prior to LPS, plasma TNF-α 80-90 minutes after LPS, read-out: In vivo inhibition of LPS induced TNF-α production (in %)
Protocol: In Vivo Screening Model of LPS Induced TNF-α Response in Mice
To study the effect of compounds of the present invention in vivo, an in vivo screening model of LPS induced TNF-α response in mice was set up as follows: Groups of 6 mice (C3H/HeN, female, about 8 weeks (20 g), Bomholtgaard) were dosed with test compounds in suspension vehicle 1 hour prior to LPS administration (LPS from E. coli 055:B5, L-4005, Sigma). At time 0, the mice were dosed ip with 1.0 mg LPS/kg. After anesthetization with Hypnorm/Dormicum, the mice were bled from the periorbital venous plexus 80-90 minutes after LPS administration. The blood samples were sampled in EDTA stabilised tubes and centrifuged at 4000 rpm for 10 minutes at 4° C. The plasma level of TNF-α was analysed by ELISA. Compound 156 of WO 98/32730 was used as reference compound. The plasma level of TNF-α was determined using a sandwich ELISA. Microtiter plates were coated with a monoclonal antibody against mouse TNF-α, washed and blocked with a casein buffer. Samples of mouse TNF-α recombinant standards were added to the wells of the microtiter plates and incubated. All standards were tested in triplicate, all plasma samples in single. After sample and standard incubation, the plates were washed and incubated with biotinylated polyclonal secondary antibody against mouse TNF-α and washed. Enzyme conjugate was added to all wells and incubated. Substrate was added and the enzyme/substrate reaction stopped after 15 minutes at room temperature with 1M H2SO4. The colour development (OD) was measured at 450 nm on an ELISA reader and the background OD at 620 nm was subtracted. […] The results of the tested compounds are indicated as a percentage inhibition compared to an LPS treated control group. Compounds were tested at 1 mg/kg (p.o.). The Mann-Whitney test was used to compare drug treated groups to the LPS treated control group (p<0.05).

TNF-α [3] = test: as above; details: Mus musculus, ip, tested at 10 mg/kg i.p., plasma TNF-α 80-90 minutes after LPS, read-out: In vivo inhibition of LPS induced TNF-α production (in %)
p38α MAP kinase = target: T1, p38α MAP kinase (Homo sapiens, UniProt Q16539); test: p38α MAP kinase assay (immunoprecipitated FLAG-p38α from COS-1 cells, GST-ATF-2 substrate); type: biochemical
T1 construct: made in house; host or cells: COS-1 cells (transient co-transfection), immunoprecipitated with anti-FLAG M2 on Protein G Sepharose
Protocol: COS-1 cells (derived from African green monkey kidney fibroblast-like cell containing wild-type T antigen under control of the SV40 promotor) were obtained from ATCC (ATCC no. CRL-1650) and grown in growth medium (DMEM without phenolred, 10% FCS, 2 mM L-glutamine, 100U penicillin and 100 μg streptomycin/ml) at 37° C. with 5% CO2. The cells were passaged twice a week by trypsination (0.25% trypsin, 1 mM EDTA in PBS) and were split 1:10. The medium was changed every second or third day. The cell line was regularly tested with the Mycoplasma PCR Primer Set (Stratagene) and found to be free of Mycoplasma. Tissue culture media, FCS, L-glutamine and penicillin and streptomycin are from Bribco BRL, Gaithersburg, Md., USA.
On day one COS-1 cells were seeded in 143 cm^2 petridish with a density of 2×10^4 celler/cm^2 in growth medium. At day 2 the cells were co-transfected with 5 μg (total) of experimental plasmid DNA, expressing the FLAG-p38α and FLAG-MKK6(EE). The plasmids were introduced into the COS-1 cells in serum-free medium using DOTAP™ (Boehringer-Mannheim, Mannheim, Germany). Plasmid DNA was prepared and purified using the QIAGEN EndoToxin-free Maxiprep-500 kit (Hilden, Germany). Briefly, DNA and DOTAP™ were mixed for exactly 15 min. at 37° C. in the CO2 incubator. […]

T1 sequence (Q16539 whole entry): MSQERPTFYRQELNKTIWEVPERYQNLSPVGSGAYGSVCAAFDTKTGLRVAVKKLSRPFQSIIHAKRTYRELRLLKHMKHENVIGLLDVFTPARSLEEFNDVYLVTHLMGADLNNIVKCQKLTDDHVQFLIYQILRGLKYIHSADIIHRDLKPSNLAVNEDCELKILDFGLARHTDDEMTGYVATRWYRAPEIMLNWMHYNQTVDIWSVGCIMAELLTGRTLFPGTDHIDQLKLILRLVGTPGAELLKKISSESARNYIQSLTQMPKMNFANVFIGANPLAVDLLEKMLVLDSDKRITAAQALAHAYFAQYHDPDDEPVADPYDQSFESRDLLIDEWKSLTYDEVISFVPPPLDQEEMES

Structure (SMILES) | IC50 (IL-1β) [nM] | IC50 (TNF-α [1]) [nM] | inhibition in vivo at 1 mg/kg (TNF-α [2]) [%] | inhibition in vivo at 10 mg/kg (TNF-α [3]) [%] | p38 MAP kinase inhibition (p38α MAP kinase)
Cc1ccc(-c2cn(CCCS(N)(=O)=O)nn2)cc1C(=O)c1ccc(Nc2ccc(F)cc2F)cc1Cl [Compound 108, 3-(4-{3-[2-Chloro-4-(2,4-difluoro-phenylamino)-benzoyl]-4-methyl-phenyl}-[1,2,3]triazol-1-yl)-propane-1-sulfonic acid amide] | 1.3 | 0.7 | 78 | – | –
Cc1ccccc1C(=O)c1ccc(Nc2ccccc2N)cc1Cl [Ref. comp. a, 4-(2-aminophenylamino)-2-chloro-2′-methylbenzophenone] | – | – | – | 23 | –
Cc1ccc(-c2cn(CC(N)=O)nn2)cc1C(=O)c1ccc(Nc2ccc(F)cc2)cc1Cl [Compound 125, 2-(4-{3-[2-Chloro-4-(4-fluoro-phenylamino)-benzoyl]-4-methyl-phenyl}-[1,2,3]triazol-1-yl)-acetamide] | 1 | 0.5 | 96 | – | –
Cc1ccc(-n2cc(CCO)nn2)cc1C(=O)c1ccc(Nc2ccc(F)cc2)cc1Cl [Compound 127, [2-Chloro-4-(4-fluoro-phenylamino)-phenyl]-{5-[4-(2-hydroxy-ethyl)-[1,2,3]triazol-1-yl]-2-methyl-phenyl}-methanone] | 0.9 | 0.7 | 94 | – | –
Cc1ccc(-c2cn(CC(=O)N3CCOCC3)nn2)cc1C(=O)c1ccc(Nc2ccc(F)cc2F)cc1Cl [Compound 115, 2-(4-{3-[2-Chloro-4-(2,4-difluoro-phenylamino)-benzoyl]-4-methyl-phenyl}-[1,2,3]triazol-1-yl)-1-morpholin-4-yl-ethanone] | 0.5 | 0.5 | 70 | – | –
Cc1ccc(-c2cn(CCCO)nn2)cc1C(=O)c1ccc(Nc2ccc(F)cc2F)cc1Cl [Compound 104, [2-Chloro-4-(2,4-difluoro-phenylamino)-phenyl]-{5-[1-(3-hydroxy-propyl)-1H-[1,2,3]triazol-4-yl]-2-methyl-phenyl}-methanone] | 0.6 | 0.5 | 90 | – | –
Cc1ccc(-c2cn(CC(=O)N3CCCC3)nn2)cc1C(=O)c1ccc(Nc2ccc(F)cc2F)cc1Cl [Compound 114, 2-(4-{3-[2-Chloro-4-(2,4-difluoro-phenylamino)-benzoyl]-4-methyl-phenyl}-[1,2,3]triazol-1-yl)-1-pyrrolidin-1-yl-ethanone] | 0.4 | 0.3 | 86 | – | –
Cc1ccc(-c2cn(CCO)nn2)cc1C(=O)c1ccc(Nc2ccc(F)cc2)cc1Cl [Compound 122, [2-Chloro-4-(4-fluoro-phenylamino)-phenyl]-{5-[1-(2-hydroxy-ethyl)-1H-[1,2,3]triazol-4-yl]-2-methyl-phenyl}-methanone] | 1.4 | 0.9 | 96 | – | –
Cc1ccc(-c2cn(CC(O)CO)nn2)cc1C(=O)c1ccc(Nc2ccc(F)cc2)cc1Cl (centres unmarked) [Compound 124, [2-Chloro-4-(4-fluoro-phenylamino)-phenyl]-{5-[1-(2,3-dihydroxy-propyl)-1H-[1,2,3]triazol-4-yl]-2-methyl-phenyl}-methanone] | 0.8 | 0.5 | 77 | – | –
Cc1ccc(-c2cn(CCO)nn2)cc1C(=O)c1ccc(Nc2ccc(F)cc2F)cc1Cl [Compound 102, [2-Chloro-4-(2,4-difluoro-phenylamino)-phenyl]-{5-[1-(2-hydroxy-ethyl)-1H-[1,2,3]triazol-4-yl]-2-methyl-phenyl}-methanone] | 1.3 | 0.5 | 94 | – | potent p38 MAP kinase inhibitor
Cc1ccc(-c2cn(CCNS(C)(=O)=O)nn2)cc1C(=O)c1ccc(Nc2ccc(F)cc2F)cc1Cl [Compound 109, N-[2-(4-{3-[2-Chloro-4-(2,4-difluoro-phenylamino)-benzoyl]-4-methyl-phenyl}-[1,2,3]triazol-1-yl)-ethyl]-methanesulfonamide] | 1.9 | 1.2 | 79 | – | –
